{"source": "paper PMC3920478", "about": "“Small molecule-mediated refolding and activation of myosin motor function” (eLife, 2014)", "key": {"β-cardiac myosin S1": {"target": "T1, β-cardiac myosin S1 (Sus scrofa, UniProt P79293)", "T1 construct": "S1 and HMM fragments were produced by proteolytic digestion of the full-length proteins with 0.05 mg/ml papain; from tissue; host or cells: porcine cardiac muscle", "T1 sequence (P79293 1-843 limits assumed)": "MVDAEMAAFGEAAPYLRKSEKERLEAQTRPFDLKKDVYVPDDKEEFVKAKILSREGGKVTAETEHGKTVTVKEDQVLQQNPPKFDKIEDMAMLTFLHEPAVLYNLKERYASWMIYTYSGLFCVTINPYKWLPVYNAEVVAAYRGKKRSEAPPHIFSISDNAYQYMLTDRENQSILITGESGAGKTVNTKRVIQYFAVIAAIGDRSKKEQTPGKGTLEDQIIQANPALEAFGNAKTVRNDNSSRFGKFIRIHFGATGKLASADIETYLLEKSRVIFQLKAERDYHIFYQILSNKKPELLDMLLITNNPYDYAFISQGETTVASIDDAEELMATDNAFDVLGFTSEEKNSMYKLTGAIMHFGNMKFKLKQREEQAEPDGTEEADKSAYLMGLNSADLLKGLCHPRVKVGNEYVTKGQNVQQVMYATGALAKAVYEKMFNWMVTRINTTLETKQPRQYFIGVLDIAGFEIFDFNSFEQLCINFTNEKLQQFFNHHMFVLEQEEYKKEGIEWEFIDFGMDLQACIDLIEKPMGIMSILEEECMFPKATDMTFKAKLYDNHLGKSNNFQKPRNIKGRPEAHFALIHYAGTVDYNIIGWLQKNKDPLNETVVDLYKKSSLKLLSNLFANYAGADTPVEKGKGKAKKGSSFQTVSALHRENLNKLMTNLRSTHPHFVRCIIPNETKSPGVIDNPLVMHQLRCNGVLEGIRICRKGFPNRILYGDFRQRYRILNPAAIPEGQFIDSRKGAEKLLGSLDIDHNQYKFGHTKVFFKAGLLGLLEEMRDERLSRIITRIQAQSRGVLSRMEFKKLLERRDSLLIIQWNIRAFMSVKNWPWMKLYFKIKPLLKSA", "assay": "Microscale thermophoresis direct binding", "parameters": "species or system Porcine", "description": "(§1) Proteolytic fragments were further purified by actin-coprecipitation."}, "Dd myosin-2 motor domain [1]": {"target": "T2, Dd myosin-2 motor domain (Dictyostelium discoideum, UniProt P08799)", "T2 sequence (P08799 1-761 limits assumed)": "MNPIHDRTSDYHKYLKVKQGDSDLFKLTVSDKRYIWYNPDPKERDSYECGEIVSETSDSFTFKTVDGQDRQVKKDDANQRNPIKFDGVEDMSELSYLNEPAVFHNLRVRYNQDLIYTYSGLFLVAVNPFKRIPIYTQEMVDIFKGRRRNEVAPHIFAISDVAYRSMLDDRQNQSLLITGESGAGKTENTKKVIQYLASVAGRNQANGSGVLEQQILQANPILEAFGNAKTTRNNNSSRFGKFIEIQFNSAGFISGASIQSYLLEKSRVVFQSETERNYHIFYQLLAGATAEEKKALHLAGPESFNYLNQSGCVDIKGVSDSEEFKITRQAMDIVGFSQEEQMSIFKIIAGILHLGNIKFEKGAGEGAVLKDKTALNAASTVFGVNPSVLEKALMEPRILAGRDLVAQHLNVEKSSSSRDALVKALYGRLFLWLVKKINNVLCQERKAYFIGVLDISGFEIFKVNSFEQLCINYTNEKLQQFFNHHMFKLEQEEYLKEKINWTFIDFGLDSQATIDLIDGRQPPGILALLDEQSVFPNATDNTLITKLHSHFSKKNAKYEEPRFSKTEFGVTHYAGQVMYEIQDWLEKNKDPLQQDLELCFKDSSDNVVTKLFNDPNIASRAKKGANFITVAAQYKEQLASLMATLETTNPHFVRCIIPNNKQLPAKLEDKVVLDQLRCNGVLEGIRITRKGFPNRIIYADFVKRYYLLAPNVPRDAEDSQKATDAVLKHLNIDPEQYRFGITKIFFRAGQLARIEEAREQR", "assay": "Microscale thermophoresis direct binding", "conditions": "100 nM, read-out: Binding affinity (MST), KD", "description": "as §1"}, "Dd myosin-2 motor domain [2]": {"target": "T2, Dd myosin-2 motor domain", "assay": "Steady-state basal and actin-activated Mg2+-ATPase (NADH-coupled assay)", "type": "biochemical", "procedure": "as §1\nBasal and actin-activated Mg^2+-ATPase activities were measured using the NADH-coupled assay described previously ([Furch et al., 1998]) adapted for higher throughput screens for a temperature controlled plate reader (Multiscan FC, Thermo Scientific, Waltham, MA) at 25°C. EMD 57033 was added to the reaction mixture in the absence of nucleotide and incubated before the reaction was started by the addition of ATP. Control measurements were carried out in the absence of drug, as well as in the presence of according concentrations of the non-binding (−)-enantiomer EMD 57439 to account for possible absorption effects. […] Data points are mean values from 3 to 5 independent experiments. Error bars indicate standard deviations."}, "[3]": {"target": "T3, complex formed by the β-cardiac myosin motor domain with F-actin (Sus scrofa, UniProt P79293)", "T3 construct": "Melting curves of the complex formed by the β-cardiac myosin motor domain with F-actin; from tissue; host or cells: porcine cardiac muscle (myosin)", "T3 sequence (P79293 1-843 limits assumed, one chain of several)": "as the sequence (P79293 1-843 limits assumed) above", "assay": "Melting curve by differential static light scattering", "conditions": "100 µM EMD 57033", "procedure": "Circular dichroism and differential static light scattering experiments were performed to determine Tm.\nProtein stability was assayed following protein aggregation associated with heat denaturation ([Senisterra et al., 2006]). Protein solutions were diluted to a concentration of 0.2 mg/ml in a buffer containing 5 mM KPi pH 7.5, 25 mM KCl and heated in steps of 0.6°C. Static light scattering was measured at each temperature step and the resulting transition curve was fitted by a Boltzmann function. The transition midpoint gives a measure for the aggregation temperature induced by protein denaturation."}, "β-cardiac myosin [4]": {"target": "T4, β-cardiac myosin (Sus scrofa, UniProt P79293)", "assay": "Heat stress protection, storage and refolding of myosin", "type": "biochemical, Porcine", "conditions": "for Competence to bind nucleotide (mantATP amplitude) preserved: 25 μM EMD 57033", "procedure": "The fraction of myosin that is able to bind mantATP drops to below 32% when the temperature is raised to 49°C for more than 5 min. Incubation for 10 min at 51°C removes the myosin completely and irreversibly from the soluble fraction. […] Moreover, based on the amplitude of the rise in mantATP fluorescence, the competence of β-cardiac myosin to bind nucleotide is preserved to more than 91% after 5-min incubation at 49°C and to approximately 82% after 10-min incubation at 49°C (Figure 4B). […] This view is supported by experiments that monitor the recovery of basal activity over a 2 hr period (Figure 4C). To obtain more detailed information about the kinetics of the EMD 57033-mediated refolding reaction, we performed three sets of experiments recording the time and concentration dependence of EMD 57033-mediated increases in the fraction of myosin molecules that are able to undergo nucleotide induced conformational changes, hydrolyze ATP, and produce movement in the in vitro motility assay.\nChanges in intrinsic protein fluorescence are tightly linked to ATP binding and ATP-induced conformational changes in the myosin motor domain ([Batra and Manstein, 1999]). […] The dependence of the kobs values on the incubation time was best fit by a hyperbola (Figure 4E). […] The slope defines a value of 0.02 × 10^-3 μM^−1 s^−1 for the second order rate constant for the EMD 57033-mediated refolding reaction (Figure 4H)."}, "β-cardiac myosin [5]": {"target": "T4, β-cardiac myosin", "assay": "Steady-state basal and actin-activated Mg2+-ATPase (NADH-coupled assay)", "type": "biochemical, Porcine"}, "phosphodiesterase III": {"tested_on": "phosphodiesterase III", "parameters": "method as in Gambassi et al., 1993", "conditions": "ref Gambassi et al., 1993; cited from earlier work"}, "β-cardiac myosin [6]": {"target": "T4, β-cardiac myosin", "assay": "Frictional loading experiments with α-actinin (force production)", "type": "biochemical, Porcine", "parameters": "β-Cardiac myosin-2 (S1, full-length); from tissue; host or cells: porcine cardiac muscle", "description": "In addition, the fraction of moving filaments increased from <75% to >95%. […] In initial experiments, we determined the minimal concentration of α-actinin molecules that generate sufficient load to stall the movement of actin filaments for a given surface density of myosin heads. […] Next, we generated in vitro motility flow cells with actin filaments held at stall force. […] The time-dependence of the recovery of motile activity is best fit by a hyperbola. A plateau value of 0.4 μm s^−1 is reached after more than 2 hr (Figure 1G)."}, "[7]": {"conditions": "25 μM EMD 57033, 8 µg/ml α-actinin"}}, "note": "Values joined by “and” are separate entries in the source; they are usually repeats but may differ in a detail not shown here. Identical values can stand only once. “Also recorded” adds a separate entry of the source."}
{"smiles": "COc1ccc(C(=O)N2CCCc3cc(C4=NNC(=O)SC4C)ccc32)cc1OC", "note": "(centres unmarked) [EMD 57033]", "values": [{"measurement": "Binding stoichiometry", "setting": "β-cardiac myosin S1", "result": "one molecule of EMD 57033 per myosin head"}, {"measurement": "Kd", "setting": "β-cardiac myosin S1; fluorescently labeled β-cardiac myosin S1, 100 nM, fit to Hill equation, read-out: Binding affinity (MST), KD", "result": 7.3, "unit": "µM"}, {"measurement": "Kd", "setting": "Dd myosin-2 motor domain [1]", "result": 23, "unit": "µM"}, {"measurement": "AC50", "setting": "Dd myosin-2 motor domain [2]", "result": 25.8, "unit": "µM"}, {"measurement": "Normalized maximal ATPase activation (basal)", "setting": "Dd myosin-2 motor domain [2]", "result": 1.4}, {"measurement": "Normalized maximal ATPase activation (with 30 µM actin)", "setting": "Dd myosin-2 motor domain [2]; 30 µM actin", "result": 2.8}, {"measurement": "Basal ATP turnover relative to that expected for 100% active protein", "setting": "Dd myosin-2 motor domain [2]; saturating EMD 57033", "result": 1.4, "unit": "fold"}, {"measurement": "Tm (mid-point of transition)", "setting": "[3]", "result": "66.4 ± 3", "unit": "°C"}, {"measurement": "Shelf life of protein-functionalized surfaces", "setting": "β-cardiac myosin [4]", "result": "from a couple of hours to several months"}, {"measurement": "Shelf life of myosin at 4°C", "setting": "β-cardiac myosin [4]; 25 µM EMD 57033", "result": "extends the shelf life"}, {"measurement": "Competence to bind nucleotide (mantATP amplitude) preserved", "setting": "β-cardiac myosin [4]; 5-min incubation at 49°C", "result": "more than 91%"}, {"measurement": "Competence to bind nucleotide (mantATP amplitude) preserved", "setting": "β-cardiac myosin [4]; 10-min incubation at 49°C", "result": "approximately 82%"}, {"measurement": "Recovery of ability to bind mantATP after heat inactivation", "setting": "β-cardiac myosin [4]; 10 min at 49°C, then 25 µM EMD 57033", "result": "gradually recovered"}, {"measurement": "First order dissociation rate constant for EMD 57033 (y-intercept)", "setting": "β-cardiac myosin [4]; heat-treated β-cardiac myosin", "result": 0.00023, "unit": "s⁻¹"}, {"measurement": "Second order rate constant for the EMD 57033-mediated refolding reaction (krescue)", "setting": "β-cardiac myosin [4]; heat-treated β-cardiac myosin, 10–100 μM EMD 57033", "result": 20, "unit": "M⁻¹ s⁻¹"}, {"measurement": "Recovery of enzymatic activity of fully denatured myosin aggregates", "setting": "β-cardiac myosin [4]; incubation for 6 hr on ice or at 20°C", "result": "no detectable recovery of enzymatic activity"}, {"measurement": "Precipitation / solubility of myosin under heat stress", "setting": "β-cardiac myosin [4]; preincubation with 25 μM EMD 57033, 10-min incubation", "result": "remained in the supernatant over the entire temperature range tested; also recorded: prevents precipitation"}, {"measurement": "Ea ∼Change (−fold), reduction", "setting": "β-cardiac myosin [5]; EMD 57033 vs control", "result": 1.5, "unit": "fold"}, {"measurement": "Ea (Arrhenius activation energy of ATP turnover)", "setting": "β-cardiac myosin [5]; in presence of EMD 57033, 25–45°C", "result": "7.41 kcal/mol and 7.41 ± 0.72 kcal/mol"}, {"measurement": "Phosphodiesterase III inhibition", "setting": "phosphodiesterase III", "result": "only minimal phosphodiesterase III inhibitory effects"}, {"measurement": "Plateau value of recovered filament velocity at stall load", "setting": "β-cardiac myosin [6]; [7]", "result": 0.4, "unit": "μm s^−1"}, {"measurement": "Time to reach plateau of recovered motility", "setting": "β-cardiac myosin [6]; [7]", "result": "more than 2 hr"}, {"measurement": "α-actinin concentration required to stall filament movement", "setting": "β-cardiac myosin [6]; in presence of EMD 57033", "result": "≥ 12", "unit": "µg/mL"}]}
